Reference: patent US9144569B2, “Methods of administering an aromatase inhibitor, prostaglandin and GnRH for regulating ovulation in cattle” (UNIVERSITY OF SASKATCHEWAN, priority 2010, dated 2015)
Marks after values point to notes of the source that are not given here.

Tests used:
women = assay: Letrozole at expected time of ovulation in women; assay type: in vivo, human; conditions: women treated at 18 mm follicle diameter
[1] = system: Hereford-cross beef heifers; assay: Example II: 3-day letrozole regimen in heifers, ovarian ultrasonography; assay type: in vivo, cattle; conditions: for Inter-ovulatory interval / Inter-wave interval: 85 μg/kg/day iv; for Inter-wave interval: mean±SEM
Protocol: Hereford-cross beef heifers, 14 to 20 months of age and weighing between 233 and 404 kg, were chosen from a herd of 50 animals maintained in outdoor corrals at the University of Saskatchewan Goodale Research Farm (52° North and 106° West). Heifers were fed alfalfa/grass hay and grain to gain approximately 1.3 kg per day and had water ad libitum during the experimental period from May to July. Heifers were initially examined by transrectal ultrasonography (7.5 MHz linear-array transducer, Aloka SSD-900; Tokyo, Japan) to confirm that they were postpubertal by the presence of a CL [33].
(§1) Four days after follicular ablation, heifers were given 500 μg of cloprostenol (PGF, Estrumate, Schering-Plough Animal Health, Pointe-Claire, QC, Canada) intramuscularly (im) to induce regression of the CL and to synchronize ovulation. The experiment was performed in two replicates (n=20-27 per replicate) and each heifer was used only once. In replicate 1, heifers were assigned randomly at the time of ovulation (Day 0) to the following groups and given a 3-day regimen of letrozole from Days 1 to 3 (n=5), Days 3 to 5 (n=5), Days 5 to 7 (n=5), or no treatment (control group, n=5). In replicate 2, heifers were similarly assigned to groups and given letrozole from Days 1 to 3, (n=5), Days 3 to 5 (n=4), or Days 5 to 7 (n=4), but untreated control heifers were arranged in three sub-groups to serve as contemporaneous controls for each letrozole-group during intensive blood sampling periods (i.e., control Days 1 to 3, n=4; control Days 3 to 5, n=4; and control Days 5 to 7, n=5). For practical purposes, the total dose of letrozole (250 μg/kg) was calculated on the basis of an average weight of 350 kg for all heifers and administered intravenously in daily divided doses over 3 days (85 μg/kg per day). For intravenous injection, letrozole was prepared in 95% ethanol to a final concentration of 5 mg/ml, resulting in an injection volume of 6 mL/day.
Ultrasound examinations were recorded on a sketch sheet in which each ovary and its structures (CL [37] and follicles ≧4 mm in diameter) were represented in size and relative location. Ovulation was defined as the disappearance of any follicle ≧8 mm between two consecutive daily examinations, and was confirmed by the subsequent development of a CL [39]. Follicular wave emergence was defined retrospectively as the day when the dominant follicle was first identified at a diameter of 4 or 5 mm. If the dominant follicle was not identified until it reached 6 or 7 mm, the previous day was considered the day of follicular wave emergence. The dominant follicle of a wave was defined as the largest antral follicle of that wave after deviation, and the first subordinate follicle as the second largest antral follicle originated from the same wave. The day of onset of follicular and luteal regression was defined as the first day of an apparent constant decrease in follicular and luteal diameters, respectively.
Statistical analyses were done using the Statistical Analysis System software package (SAS Learning Edition 9.1, 2006; SAS Institute Inc., Cary, N.C., USA). Time-series hormone data, plasma letrozole concentration, and follicular and luteal diameter profiles were analysed by repeated measures, using the PROC MIXED procedure. The main effects were treatment, time, and their interactions. […] Single point measurements (interwave and interovulatory intervals, interval from ovulation to onset of CL regression, mean and basal LH concentrations, LH pulse amplitude and frequency, and pharmacokinetic parameters for letrozole) were analysed by analysis of variance. […] If significant main effects or interactions (P≦0.05) were detected, Tukey's post-hoc test was used for multiple comparisons.

[2] = Example II: plasma letrozole concentration during 3-day regimen (HPLC/MS); assay type: in vivo, cattle; conditions: for plasma letrozole concentration, overall mean: 85 μg/kg/day iv
Protocol: as §1
Blood samples were collected by jugular or coccygeal venipuncture into 10 ml heparinised, vacuum tubes (Vacutainer tubes; Becton Dickinson Vacutainer Systems, Franklin Lakes, N.J., USA). Blood samples were collected daily from pre-treatment ovulation to post-treatment ovulation. In replicate 1, additional samples were collected from letrozole-treated heifers every 12 hours from the beginning of treatment to first wave emergence. In replicate 2, heifers were sampled at 15 minute intervals for the first 8 hours after the second dose of letrozole (i.e., second day of treatment) using an indwelling jugular catheter, as described previously. Blood samples were centrifuged at 1500×g for 20 minutes, and plasma was separated and stored in plastic tubes at −20° C.
Plasma concentrations of letrozole were determined from samples collected every 12 hours from pre-treatment to one day after cessation of treatment using high performance liquid chromatographytandem mass spectrometry (HPLC/MS) as described in Chapter 4, Section 4.3.6.

[3] = 85 μg/kg/day iv for 3 days, all three groups

N#Cc1ccc(C(c2ccc(C#N)cc2)n2cncn2)cc1 [Letrozole, letrozole]
ovulation earlier than controls (women): 24 h
Inter-ovulatory interval ([1]; Days 1 to 3, n=10): 20.9 ± 0.46^a days
Inter-wave interval ([1]; Days 1 to 3, n=10): 8.9 ± 0.35^a days
Inter-ovulatory interval ([1]; Days 3 to 5, n=9): 20.1 ± 0.49^a days
Inter-wave interval ([1]; Days 3 to 5, n=9): 10.0 ± 0.37^ab days
Inter-ovulatory interval ([1]; Days 5 to 7, n=9): 21.2 ± 0.49^a days
Inter-wave interval ([1]; Days 5 to 7, n=9): 10.7 ± 0.37^b days
Inter-wave interval ([1]; Days 5 to 7, n=9, listed as letrozole): 10.7 days
growth of the extant dominant follicle compared to controls ([1]; 3-day regimen, treatment groups combined (n=28) vs untreated, P<0.01): grew longer and to a greater diameter
diameter profile of the largest subordinate follicle compared to controls ([1]; treated Days 1 to 3, P<0.05): larger
diameter profile of the largest subordinate follicle compared to controls ([1]; treated Days 3 to 5): intermediate
diameter profile of the largest subordinate follicle compared to controls ([1]; treated Days 5 to 7): intermediate
time after initiation of treatment by which plasma letrozole was elevated [2, 3]: ≤ 12 h
time by which plasma letrozole declined to approximately half peak values [2, 3]: ≤ 108 h
time by which plasma letrozole reached peak levels [2, 3]: ≤ 60 h
plasma letrozole concentration, overall mean ([2]; Days 1 to 3): 68.6 ± 4.79 ng/mL
plasma letrozole concentration, overall mean ([2]; Days 3 to 5): 43.9 ± 4.75 ng/mL
plasma letrozole concentration, overall mean ([2]; Days 5 to 7): 55.6 ± 4.75 ng/mL
mean circulating level of letrozole during the first 96 hours ([2]; 250 μg/kg, 3-day protocol): 60.8 ± 3.36 ng/mL
concentration at 96 hours ([2]; female, bovine, plasma, intravenous, 85 μg/kg per day, 250 μg/kg divided in a 3-day regimen, read-out: mean concentration of letrozole in the circulation at 96 hours): 51.6 ± 4.33 ng/mL
